Measurements published in US6525094B1, “Method of treating hair loss using diphenylether derivatives” (The University of Texas Southwestern Medical Center, priority 1999, dated 2003).

Tested on: male Sprague Dawley rats
Assay: Cardiotoxicity Assay (heart-to-body weight ratio)
Assay type: in vivo, rat
Conditions: 250 μg of test compound per kg subcutaneously once daily for 28 days, hearts weighed on day 30
Description: The cardiotoxicity assay measures the potential of a test compound to adversely affect the cardiovascular system. As thyroid hormone (T3) damages the cardiovascular system, the heart enlarges. See, e.g., Gomberg-Maitland et al., “Thyroid hormone and Cardiovascular Disease”, American Heart Journal, Vol. 135(2), pp. 187-196 (1998); Klein and Ojamaa, “Thyroid Hormone and the Cardiovascular System”, Current Opinion in Endocrinology and Diabetes, Vol. 4, pp.341-346 (1997); and Klemperer et al., “Thyroid Hormone Therapy and Cardiovascular Disease”, Progress in Cardiovascular Diseases, Vol. 37 (4), pp. 329-336 (1996). This increases the weight of the heart relative to whole body weight. The cardiotoxicity assay herein below is used to test compounds for potentially adverse cardiac effects by measuring their effect on the heart-to-body weight ratio.
Two groups each of six male Sprague Dawley rats (Harlan Sprague Dawley, Inc., Indianapolis, Ind.) (each weighing from approximately 220 grams to 235 grams) are utilized. The first group is a vehicle control group and the second group is a test compound group. The length of the assay is 30 days, with treatment of vehicle or test compound in vehicle daily for 28 of those days as described below.
Prior to initiation of the assay, each rat is allowed to acclimate to standard environmental conditions for 5 days. […]

Structure (SMILES) | cardiac-sparing (index C = RT/RV, heart/body weight ratio of test compound group divided by that of vehicle control group; C less than 1.3 = cardiac-sparing)
N[C@@H](Cc1cc(I)c(Oc2ccc(O)c(I)c2)c(I)c1)C(=O)O [Example T3, thyronine] | not cardiac-sparing
N[C@@H](Cc1cc(I)c(Oc2cc(I)c(O)c(I)c2)c(I)c1)C(=O)O [Example T4, thyroxine] | not cardiac-sparing
